Legend:
[1] = test system: plasma lipid peroxidation; experiment: Ex vivo peroxyl radical (AAPH)-induced lipid peroxidation of plasma from apoE−/−;LDLr−/− mice; assay type: in vivo; conditions: pooled plasma of bisphenol-treated mice, 5 mM AAPH, 37° C.
Protocol: Pooled plasma obtained from at least 3 mice receiving control diet (circles) or diet supplemented with bisphenol (squares) were treated with 5 mM AAPH and incubated at 37° C. At the times indicted aliquots were removed and analysed for α-TOH (A) and CE-O(O)H (B). 100% α-TOH levels correspond to 28±3 and 20±2 μM for control and H 212/43 plasma, respectively. Data represents the mean±SD (n=4 independent experiments).
Oxidation of plasma, pooled from=3 mice was carried out by addition of the peroxyl radical generator (final concentrations 5 mM) and incubating the reaction mixture at 37° C. under air. Aliquots (50 μL) of the reaction mixture were removed, extracted in methanol/hexane (1:5, v/v), and the consumption of antioxidants and accumulation of lipid oxidation products determined.
Analyses of oxidised and non-oxidised lipids were carried out by RP-HPLC as described in Example 1 except that in some instances UV234 nm rather than post-column chemiluminescence detection was used to measure C18:2-OOH and the corresponding hydroxides (together referred to as CE-O(O)H) which show similar retention times under these chromatographic conditions. α-TQ, α-TOH, α-tocotrienol, D-isosascorbate and ascorbate were determined by HPLC with electrochemical detection. […] All compounds were quantified by peak area comparison with authentic standards. […]

[2] = test system: aortic lipoprotein lipid peroxidation; experiment: Aqueous and lipophilic parameters of apoE−/−;LDLr−/− mouse aortae; assay type: in vivo, mice
Protocol: Pooled aortas from 7-8 mice obtained from control or bisphenol-treated mice were homogenized, the lipid extracted and subjected to HPLC with post-column chemiluminescence detection for analysis of cholesteryl ester hydroperoxides (CE-OOH). Chromatograms correspond to aortas of age-matched control (a or b) or drug-treated mice with low or high plasma levels of bisphenol (c and d, respectively). Under the conditions used, CE-OOH eluted between 8 and 9.5 min. The chemiluminescence negative peaks between 4 and 5.5 min correspond to the elution of tocopherols.
Male apoE−/−;LDLr−/− mice (59 total), were maintained on standard R3 chow from weaning to 8 weeks of age (young controls, n=9). […]
Analyses of oxidised and non-oxidised lipids were carried out by RP-HPLC as described in Example 1 except that in some instances UV234 nm rather than post-column chemiluminescence detection was used to measure C18:2-OOH and the corresponding hydroxides (together referred to as CE-O(O)H) which show similar retention times under these chromatographic conditions. α-TQ, α-TOH, α-tocotrienol, D-isosascorbate and ascorbate were determined by HPLC with electrochemical detection. For oxidation of plasma, unesterified cholesterol (which remained non-oxidised in these experiments) was employed as internal standard for all polyunsaturated, lipid-soluble components analysed. […]

[3] = test system: tocopherol-mediated peroxidation (TMP); experiment: Anti-TMP index; assay type: biochemical
[4] = test system: α-tocopheroxyl radical; experiment: Tocopheroxyl radical attenuating ability (TRAA); assay type: biochemical; conditions: kobs in presence (+) or absence (−) of test compound
[5] = test system: atherosclerosis in apoE−/−;LDLr−/− mice; experiment: Atherosclerosis (intima volume, descending thoracic aorta) in apoE−/−;LDLr−/− mice; assay type: in vivo; conditions: bisphenol for 14 weeks, compared with age-matched controls
Protocol: Lesion formation was assessed by changes to intima volume when compared with young and age-matched controls receiving standard chow for 8 and 22 weeks, respectively. *Denotes a statistically significant difference with α<0.025 (Wilcoxon test).
Aortic lesions were assessed in segments centered around the third pair of intercostal artery branches in the descending thoracic aorta. Briefly, the fixed aortas were dehydrated in ethanol, cleared with xylene and embedded in paraffin. Serial sections (10 in total; each 2-3 μm thick and 100 μm apart) were cut and stained using Weigerts hematoxylin-van Gieson. Aortic thickening was assessed as the total volume of intima in the segment investigated in bisphenol-treated versus control samples.
Aortic volumes were determined by planimetry, using a Lucivid device (MicroBrightField, Colchester, Vermont, […]) attached to a Leitz DRM microscope that allowed the superposition of a computer monitor onto the cross sectional image.

`CC(C)(C)c1cc(-c2cc(C(C)(C)C)c(O)c(C(C)(C)C)c2)cc(C(C)(C)C)c1O` [Bisphenol] was tested, and the “CE-OOH detected after 12 h of oxidation” value [1] was less than 1 µM, the “α-TOH after 12 h of oxidation” value [1] was “remained unaltered” and the “level of oxidised lipids in aortas, fold lower than control” value ([2]; drug-treated animals with high plasma levels of bisphenol) was 1000 fold. The “level of oxidised lipids in aortas, fold lower than control” value ([2]; drug-treated animals with low plasma levels of bisphenol) was 10 fold, the Anti-TMP index [3] was 3.2 and the “TRAA (decay of α-tocopheroxyl radical; kobs(+)/kobs(−))” value [4] was “Immediate decay”. For the same compound, the “lesion size (intimal volume, descending thoracic aorta)” value [5] was “substantially decreased the lesion size”.
